Experimental data: patent publication US9695175B2, “Highly selective c-Met inhibitors as anticancer agents” (Crown Bioscience Inc. (Taiwan), priority 2012, dated 2017)

Tests used:
[1] = biological target: c-Met kinase (1038-1346AA) (Homo sapiens (Human), UniProt P08581); assay: c-Met in vitro kinase assay (Lance Ultra ULight-TK); format: biochemical; details: c-Met kinase 12.5 nM, ATP 2.5 uM, 30° C.; read-out: c-Met Enzyme IC50
Procedure: c-Met In Vitro Kinase Assay [Method] Use Lance@Ultra Ulight™-TK test kits from PerKinElmer to evaluate the inhibition of c-Met kinase by the compounds [Instrument] ENVISION plate reader of PerKinElmer […] Then ATP (final concentration 2.5 uM) and kinase substrate (final concentration 50 nM) are added. […] After 1 hr, the plate is read at 615 nm and 665 nm. The ratio of […] at 665 nm and 615 nm is calculated and used for the data analysis as follows. This assay has a Minimum Significant Ratio (MSA) of 2-3. [Samples] All exampled compounds and Crizotinib as the positive control [Data Analysis] Background—the ratio of 665 nm/615 nm (no enzyme):0.003285 • Max—the ratio of 665 nm/615 nm (no test compound):0.075356 [formula] [Software] Use CBIS data analysis software to calculate IC50 values

[2] = biological target: c-Met protein in S114 cells (Homo sapiens (Human), UniProt P08581); assay: S114 cell-based ELISA, phosphorylation of c-Met protein; details: 30 min compound incubation, phospho-c-Met ELISA
Sequence of c-Met protein in S114 cells (P08581 25-1390): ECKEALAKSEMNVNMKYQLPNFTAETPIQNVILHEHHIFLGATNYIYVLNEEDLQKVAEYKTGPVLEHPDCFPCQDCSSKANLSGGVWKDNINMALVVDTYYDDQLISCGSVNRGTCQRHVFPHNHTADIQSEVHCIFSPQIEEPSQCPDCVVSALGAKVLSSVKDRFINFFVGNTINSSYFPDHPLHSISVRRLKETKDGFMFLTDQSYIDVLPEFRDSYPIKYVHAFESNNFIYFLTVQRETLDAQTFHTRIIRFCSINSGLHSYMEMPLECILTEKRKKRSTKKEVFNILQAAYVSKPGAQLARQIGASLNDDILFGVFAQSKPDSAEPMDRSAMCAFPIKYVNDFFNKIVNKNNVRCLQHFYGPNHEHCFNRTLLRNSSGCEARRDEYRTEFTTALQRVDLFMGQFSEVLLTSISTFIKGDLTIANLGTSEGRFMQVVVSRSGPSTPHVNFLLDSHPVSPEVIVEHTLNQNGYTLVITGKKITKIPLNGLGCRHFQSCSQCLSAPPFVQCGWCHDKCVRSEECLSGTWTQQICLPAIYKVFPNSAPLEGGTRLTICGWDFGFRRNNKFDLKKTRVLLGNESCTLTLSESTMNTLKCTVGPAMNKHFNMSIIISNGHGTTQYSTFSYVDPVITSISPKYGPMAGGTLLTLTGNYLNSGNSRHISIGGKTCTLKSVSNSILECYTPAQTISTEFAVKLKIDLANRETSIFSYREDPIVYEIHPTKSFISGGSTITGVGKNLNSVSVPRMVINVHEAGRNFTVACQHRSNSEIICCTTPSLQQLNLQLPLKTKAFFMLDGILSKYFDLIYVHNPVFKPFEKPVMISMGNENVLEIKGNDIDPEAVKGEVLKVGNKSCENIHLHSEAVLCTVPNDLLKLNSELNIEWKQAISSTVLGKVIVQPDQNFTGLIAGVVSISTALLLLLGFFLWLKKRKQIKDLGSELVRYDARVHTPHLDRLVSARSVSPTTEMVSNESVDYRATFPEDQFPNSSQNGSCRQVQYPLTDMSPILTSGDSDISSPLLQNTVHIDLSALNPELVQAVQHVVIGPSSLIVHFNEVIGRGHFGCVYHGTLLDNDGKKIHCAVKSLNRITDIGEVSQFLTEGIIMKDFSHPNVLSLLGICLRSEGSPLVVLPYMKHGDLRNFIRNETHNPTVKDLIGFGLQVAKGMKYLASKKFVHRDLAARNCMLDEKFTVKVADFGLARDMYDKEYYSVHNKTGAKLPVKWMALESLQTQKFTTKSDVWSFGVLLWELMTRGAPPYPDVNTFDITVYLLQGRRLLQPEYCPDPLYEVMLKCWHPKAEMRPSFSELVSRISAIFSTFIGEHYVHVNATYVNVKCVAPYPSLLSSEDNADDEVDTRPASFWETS
Procedure: Cell-Based ELISA [Method] Use ELISA to measure the phosphorylation of c-Met protein in […] cells [Instrument] ENVISION plate reader of PerKinElmer […] [Procedure] […] cells are cultured in DMEM medium (containing 10% FBS). When cells reach 80% confluency, they are collected by trypsinization and centrifugation at 800 rpm for 5 min. The cells are re-suspended in DMEM and adjusted to a density of 500,000 cells/mL. A 96-well plate is pretreated with a solution of Firbronectin in PBS (5 μg/mL) at 100 μL per well for 2 hr. The cell suspension is split into the 96-well culture plate at 100 uL per well and incubated (37° C., 5% CO2) overnight. The capture antibody is diluted with 1/2 Tris-ammonium bicarbonate buffer (1:1000) and transferred into a 96-well absorption plate (70 μL per well) at 4° C. overnight. The solution is discarded and the plate is washed with blocking buffer, followed by adding blocking buffer (150 μL per well), and kept at room temperature for 1 hr. The medium in the 96-well culture plate is discarded and the plate is washed with DMEM (without FBS). Then 80 μL of DMEM (without FBS) and 20 μL of test compound solution at various concentrations in DMEM (without FBS) are added. The culture plate is kept in a culture incubator for 30 min (37° C., 5% CO2). The cell culture medium is discarded and the culture plate is washed with PBS, followed by adding lysis buffer (50 μL per well) and incubated at 4° C. for 20 min. The solution in the absorption plate is discarded and the plate is washed with binding buffer. To each well of the absorption plate is added binding buffer (50 μL) and lysate (40 μL) from the above culture plate; then the plate is incubated at room temperature for 2 hours. The culture medium is discarded and the plate is washed twice with binding buffer, followed by adding a solution of 1st antibody (diluted with binding buffer 1:1000, 100 μL per well) and incubated at 37° C. for 1 hr. The solution is discarded and the plate is washed twice with binding buffer. Then a solution of 2nd antibody is added (100 μL per well) and incubated at 37° C. for another hour. The medium is discarded and the plate is washed twice with binding buffer and once with PBS. To each well, 100 μL of A.B.T.S solution is added and incubated at 37° C. for 30 min. Then OD405 is analyzed on an ENVISION plate reader. This assay has a Minimum Significant Ratio (MSA) of 2-3. [Samples] All exemplified compounds and Crizotinib as the positive control [Data Analysis] Background (no cell lysate): 0.084 • Max (no test compound): 0.517 [formula] [Software] Use CBIS data analysis software to calculate IC50 values

Sequence of c-Met kinase (1038-1346AA) (P08581 1038-1346): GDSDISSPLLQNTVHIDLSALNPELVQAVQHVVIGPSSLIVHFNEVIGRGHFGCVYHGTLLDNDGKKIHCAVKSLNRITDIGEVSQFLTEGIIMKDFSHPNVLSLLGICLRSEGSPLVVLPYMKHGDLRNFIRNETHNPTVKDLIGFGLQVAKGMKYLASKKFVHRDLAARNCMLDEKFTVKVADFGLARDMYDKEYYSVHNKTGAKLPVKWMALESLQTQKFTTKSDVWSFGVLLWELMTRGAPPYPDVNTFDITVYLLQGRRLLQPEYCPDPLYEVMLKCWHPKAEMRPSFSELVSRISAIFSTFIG

Row | IC50 [1] | IC50 [2] | SMILES
1 | 20.7 nM | 15.5 nM | CCNC(=O)c1ccc(-c2ccc3nnc(C(F)(F)c4cc5cn(C)nc5cc4F)n3n2)cc1F [Example 22]
2 | 41.6 nM | 1.1 nM | CC(C)NC(=O)c1ccc(-c2ccc3nnc(C(F)(F)c4cc5cn(C)nc5cc4F)n3n2)cc1F [Example 23]
3 | 43.4 nM | 14.9 nM | Cn1cc2cc(C(F)(F)c3nnc4ccc(-c5ccc(C(=O)NC6CC6)c(F)c5)nn34)c(F)cc2n1 [Example 24]
4 | 125 nM | 52.7 nM | Cn1cc2cc(C(F)(F)c3nnc4ccc(-c5ccc(C(=O)N6CCCC6)c(F)c5)nn34)c(F)cc2n1 [Example 25]
5 | 357 nM | 299 nM | Cn1cc2cc(C(F)(F)c3nnc4ccc(-c5ccc(C(=O)N6CCOCC6)c(F)c5)nn34)c(F)cc2n1 [Example 26]
6 | 148 nM | 324 nM | CN1CCN(C(=O)c2ccc(-c3ccc4nnc(C(F)(F)c5cc6cn(C)nc6cc5F)n4n3)cc2F)CC1 [Example 27]
7 | 27.7 nM | 14.2 nM | CNC(=O)c1c(F)cc(-c2ccc3nnc(C(F)(F)c4cc5cn(C)nc5cc4F)n3n2)cc1F [Example 28]
8 | 29.5 nM | 7.9 nM | Cn1cc2cc(C(F)(F)c3nnc4ccc(-c5ccc(NC(=O)C6CC6)c(F)c5)nn34)c(F)cc2n1 [Example 29]
9 | 51.8 nM | 45 nM | CNC(=O)c1cc(-c2ccc3nnc(C(F)(F)c4cc5cn(C)nc5cc4F)n3n2)ccn1 [Example 30]
10 | 81.4 nM | 60.6 nM | CNC(=O)c1ccc(-c2ccc3nnc(C(F)(F)c4cc5cn(C)nc5cc4F)n3n2)cn1 [Example 31]
11 | 109 nM | 37.7 nM | Cc1cncc(-c2ccc3nnc(C(F)(F)c4cc5cn(C)nc5cc4F)n3n2)c1 [Example 32]
12 | 242 nM | 210 nM | Cn1cc2cc(C(F)(F)c3nnc4ccc(-c5cncc(F)c5)nn34)c(F)cc2n1 [Example 33]
13 | 53.2 nM | 57.6 nM | Cn1cc2cc(C(F)(F)c3nnc4ccc(-c5cncc(Cl)c5)nn34)c(F)cc2n1 [Example 34]
14 | 65 nM | 88.1 nM | Cn1cc2cc(C(F)(F)c3nnc4ccc(-c5ccc(C#N)nc5)nn34)c(F)cc2n1 [Example 35]
15 | 113 nM | 34 nM | Cc1cc(-c2ccc3nnc(C(F)(F)c4cc5cn(C)nc5cc4F)n3n2)ccn1 [Example 36]
16 | 50.7 nM | 13.7 nM | Cn1cc(-c2ccc3nnc(C(F)(F)c4cc5cn(C)nc5cc4F)n3n2)cn1 [Example 37]
17 | 82.9 nM | 44.1 nM | CC(C)n1cc(-c2ccc3nnc(C(F)(F)c4cc5cn(C)nc5cc4F)n3n2)cn1 [Example 38]
18 | 79.7 nM | 204 nM | Cn1cc2cc(C(F)(F)c3nnc4ccc(-c5cnn(C6CCOC6)c5)nn34)c(F)cc2n1 (stereo not shown) [Example 39]
19 | 203 nM | 134 nM | COCCn1cc(-c2ccc3nnc(C(F)(F)c4cc5cn(C)nc5cc4F)n3n2)cn1 [Example 40]
20 | 127 nM | 348 nM | Cn1cc2cc(C(F)(F)c3nnc4ccc(-c5cnn(CC6COCO6)c5)nn34)c(F)cc2n1 (stereo not shown) [Example 41]
21 | 136 nM | 406 nM | CNS(=O)(=O)c1ccc(-c2ccc3nnc(C(F)(F)c4cc5cn(C)nc5cc4F)n3n2)cc1F [Example 42]
22 | 23.3 nM | 35.2 nM | Cn1cc2cc(C(F)(F)c3nnc4ccc(-c5cc(F)c6c(c5)CNC6=O)nn34)c(F)cc2n1 [Example 43]
23 | 31.6 nM | 7.8 nM | Cn1cc2cc(C(F)(F)c3nnc4ccc(-c5cnn(C6CC6)c5)nn34)c(F)cc2n1 [Example 44]
24 | 274 nM | 270 nM | Cn1cc2cc(C(F)(F)C3(Cl)NN=C4C=CC(c5cnn(C6CC6)c5)=CN43)c(F)cc2n1 (stereo not shown) [Example 45]
25 | 159 nM | 139 nM | Cn1cc2cc(C(F)(F)c3nnc4ccc(-c5cnn(C6CC6)c5)cn34)c(F)cc2n1 [Example 46]
26 | 4130 nM | – | O=C(NCCN1CCOCC1)n1cc2cc(C(F)(F)c3nnc4ccc(-c5cnn(C6CC6)c5)nn34)c(F)cc2n1 [Example 51]
27 | 568 nM | – | Nc1nc2ccc(C(F)(F)c3nnc4ccc(-c5cnn(C6CC6)c5)nn34)cc2[nH]1 [Example 52]

More lines, now with the values behind:

Row | SMILES | IC50 [1] | IC50 [2]
28 | CNC(=O)c1ccc(-c2ccc3nnc(C(F)(F)c4ccc5nn(C)cc5c4F)n3n2)cc1F [Example 1, 4-(3-(Difluoro(4-fluoro-2-methyl-2H-indazol-5-yl)methyl)-[1,2,4]triazolo[4,3-b]pyridazin-6-yl)-2-fluoro-N-methylbenzamide] | 48.8 nM | 3.9 nM
29 | CN(C)C(=O)c1ccc(-c2ccc3nnc(C(F)(F)c4ccc5nn(C)cc5c4F)n3n2)cc1F [Example 2] | 148 nM | 103 nM
30 | CCNC(=O)c1ccc(-c2ccc3nnc(C(F)(F)c4ccc5nn(C)cc5c4F)n3n2)cc1F [Example 3] | 69.3 nM | 71.5 nM
31 | CC(C)NC(=O)c1ccc(-c2ccc3nnc(C(F)(F)c4ccc5nn(C)cc5c4F)n3n2)cc1F [Example 4] | 83.9 nM | 2.6 nM
32 | Cn1cc2c(F)c(C(F)(F)c3nnc4ccc(-c5ccc(C(=O)NC6CC6)c(F)c5)nn34)ccc2n1 [Example 5] | 45.4 nM | 23.2 nM
33 | CNC(=O)c1c(F)cc(-c2ccc3nnc(C(F)(F)c4ccc5nn(C)cc5c4F)n3n2)cc1F [Example 6] | 36.5 nM | 9.5 nM
34 | Cn1cc2c(F)c(C(F)(F)c3nnc4ccc(-c5ccc(NC(=O)C6CC6)c(F)c5)nn34)ccc2n1 [Example 7] | 76.4 nM | 49.6 nM
35 | CNC(=O)c1ccc(-c2ccc3nnc(C(F)(F)c4ccc5nn(C)cc5c4F)n3n2)cn1 [Example 8] | – | 122 nM
36 | Cc1cncc(-c2ccc3nnc(C(F)(F)c4ccc5nn(C)cc5c4F)n3n2)c1 [Example 9] | – | 85 nM
37 | Cn1cc2c(F)c(C(F)(F)c3nnc4ccc(-c5cncc(F)c5)nn34)ccc2n1 [Example 10] | – | 142 nM
38 | Cn1cc2c(F)c(C(F)(F)c3nnc4ccc(-c5cncc(Cl)c5)nn34)ccc2n1 [Example 11] | – | 42 nM
39 | Cn1cc2c(F)c(C(F)(F)c3nnc4ccc(-c5ccc(C#N)nc5)nn34)ccc2n1 [Example 13] | 182 nM | 190 nM
40 | CC(C)n1cc(-c2ccc3nnc(C(F)(F)c4ccc5nn(C)cc5c4F)n3n2)cn1 [Example 14] | 102 nM | 22.5 nM
41 | COCCn1cc(-c2ccc3nnc(C(F)(F)c4ccc5nn(C)cc5c4F)n3n2)cn1 [Example 15] | 380 nM | 383 nM
42 | Cn1cc2c(F)c(C(F)(F)c3nnc4ccc(-c5cnn(CC6COCO6)c5)nn34)ccc2n1 (stereo not shown) [Example 16] | 247 nM | 179 nM
43 | Cn1cc2c(F)c(C(F)(F)c3nnc4ccc(-c5ccc(S(N)(=O)=O)c(F)c5)nn34)ccc2n1 [Example 17] | 77.6 nM | 55.6 nM
44 | CNC(=O)c1ccc(-c2ccc3nnc(C(F)(F)c4cc5cn(C)nc5cc4F)n3n2)c(F)c1 [Example 18] | 90.8 nM | 206 nM
45 | CNC(=O)c1ccc(-c2ccc3nnc(C(F)(F)c4cc5cn(C)nc5cc4F)n3n2)cc1F [Example 19] | 25.6 nM | 5.7 nM
46 | CC(C)NC(=O)c1ccc(-c2ccc3nnc(C(F)(F)c4cc5cn(C)nc5cc4F)n3n2)c(F)c1 [Example 20] | 137 nM | 158 nM
47 | CN(C)C(=O)c1ccc(-c2ccc3nnc(C(F)(F)c4cc5cn(C)nc5cc4F)n3n2)cc1F [Example 21] | 180 nM | 262 nM
